How the values were obtained:
[1] = Toxicity in rat RBL2H3 cells; assay type: cell-based, RBL-2H3; settings: read-out: MTD
[2] = tested on: RBL-2H3; test: Inhibition of rat RBL2H3 […] assessed as reduction of beta hexasaminidase release at 25 uM; assay type: functional
[3] = tested on: RBL-2H3; test: Inhibition of rat RBL2H3 […] assessed as reduction of beta hexasaminidase release; assay type: functional, cell-based
[4] = tested on: RBL-2H3; test: Inhibition of rat RBL2H3 […] assessed as reduction of beta hexasaminidase release at 10 uM; assay type: functional

Work on CCCCCCCCCCCCCCCCOC(=O)C[n+]1csc(CCO)c1C yielded an MNTC [1] of 50 µM, an inhibition at 25 µM [2] of 93% and an IC50 [3] of 5.5 µM.

In the case of CCCCCCCCCCCCCCCCNc1c2c(nc3c(C)cc(C)cc13)CC(C)(C)CC2=O, the inhibition at 25 µM [2] is reported as 7%.

CCCCCCCCCCCCCCCCCC(=O)Nc1c(C)c(CC)nc2ccccc12 showed an inhibition at 25 µM [2] of 10%.

Work on CCCCCCCCCCCCCCCCOP(=O)([O-])OC1CC2CCC(C1)[N+]2(C)C (stereo not drawn) yielded an MNTC [1] of 25 µM, an inhibition at 10 µM [4] of 82% and an IC50 [3] of 5.7 µM.

CCCCCCCCCCCCCCCCOP(=O)([O-])OCC[N+](C)(CC)CC gave an MNTC [1] of 50 µM, an inhibition at 10 µM [4] of 88% and an IC50 [3] of 4.4 µM.

Compound CCCCCCCCCCCCCCCCCCOC[C@H](COP(=O)([O-])OCC[N+](C)(C)C)OC [(R)-EDELFOSINE] has an MNTC [1] of 25 µM, an inhibition at 25 µM [2] of 79% and an IC50 [3] of 7.1 µM.

Compound CCCCCCCCCCCCCCCCSCC(COC)COP(=O)([O-])OCC[N+](C)(C)C (stereo not drawn) [ILMOFOSINE] has an MNTC [1] of 50 µM, an inhibition at 10 µM [4] of 84% and an IC50 [3] of 6.4 µM.

For CCCCCCCCCCCCCCCCOP(=O)([O-])OCC[N+](C)(C)C [MILTEFOSINE], the MNTC [1] was 25 µM, the inhibition at 10 µM [4] was 87% and the IC50 [3] was 4.6 µM.

In the case of CCCCCCCCCCCCCCCCCCOP(=O)([O-])OC1CC[N+](C)(C)CC1 [PERIFOSINE], the MNTC [1] is reported as 25 µM, the inhibition at 10 µM [4] is reported as 88% and the IC50 [3] is reported as 5 µM.

Reference: ChEMBL document CHEMBL1165854, “Computational screening for membrane-directed inhibitors of mast cell activation” (Eur J Med Chem, 2010)
